pIC50: −log10 of the molar value. Where two headings read alike, the source gives them in different places.
Columns and labels:
Format in all cases: cell-based
Aβ-38 = assay: MSD Human (6E10) Ab 3-PLEX elisa, conditioned media of 2B7 cells: Aβ-38; settings: for pIC50: Aβ-38 (superscript a)
In short: (§1)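 Read-out is MSD electrochemiluminescence of secreted Aβ peptides in 2B7 conditioned media after 5 hours of compound exposure at 37° C in 1% DMSO. Concentrations come from seven-point standard curves, and IC50 values from 4-parameter fits of percent vehicle.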

Aβ-40 = assay: MSD Human (6E10) Ab 3-PLEX elisa, conditioned media of 2B7 cells: Aβ-40; settings: for pIC50: Aβ-40 (superscript b)
In short: as §1

Aβ-42 = assay: MSD Human (6E10) Ab 3-PLEX elisa, conditioned media of 2B7 cells: Aβ-42; settings: for pIC50: Aβ-42 (superscript c)
In short: as §1

Row | SMILES | pIC50 (Aβ-42; read-out: IC50 range) | pIC50 (Aβ-38; read-out: 50% reduction value) | pIC50 (Aβ-42; read-out: 50% reduction value) | pIC50 (Aβ-40; read-out: 50% reduction value) | further results
1 | CC1CC(CO)OC2C1C1(C)CCC34CC35CCC(OC3OCC(O)C(O)C3O)C(C)(C)C5CCC4C1(C)C2O (stereo not drawn) [drawing 1203] | < 5.00 |  |  |  | % Inh. (range) (Aβ-38; Aβ-38, 100 μM): E^a (100 μM) E^b (100 μM) (% inhibition of 25-75%); % Inh. (range) (Aβ-40; Aβ-40, 100 μM): E^a (100 μM) E^b (100 μM) (% inhibition of 25-75%)
2 | CC(=O)OC(C1CC(C)C2C(O1)C(O)C1(C)C3CCC4C(C)(C)C(OC5CN(S(C)(=O)=O)CCO5)CCC45CC35CCC21C)C(C)(C)O (stereo not drawn) [drawing 1204] | > 6.00 | > 6.00 | > 6.00 |  | % Inh. (range) (Aβ-40; Aβ-40, 100 μM): E^b (100 μM) (% inhibition of 25-75%)
3 | CC(=O)OC(C1CC(C)C2C(O1)C(O)C1(C)C3CCC4C(C)(C)C(OC(=O)C5CNC5)CCC45CC35CCC21C)C(C)(C)O (stereo not drawn) [drawing 1205] | > 6.00 | > 6.00 | > 6.00 | > 6.00 | pIC50 (Aβ-38; read-out: IC50 range): > 6.00; pIC50 (Aβ-40; read-out: IC50 range): 5.00 to 6.00
4 | CC(=O)OCC1CC(C)C2C(O1)C(O)C1(C)C3CCC4C(C)(C)C(OC5OCC(O)C(O)C5O)CCC45CC35CCC21C (stereo not drawn) [drawing 1206] |  |  |  |  | % Inh. (range) (Aβ-38; Aβ-38, 20 μM): E^a (20 μM) E^b (20 μM) E^c (20 μM) (% inhibition of 25-75%); % Inh. (range) (Aβ-40; Aβ-40, 20 μM): E^a (20 μM) E^b (20 μM) E^c (20 μM) (% inhibition of 25-75%); % Inh. (range) (Aβ-42; Aβ-42, 20 μM): E^a (20 μM) E^b (20 μM) E^c (20 μM) (% inhibition of 25-75%)
5 | CC(=O)N(Cc1ccccc1)CC1CC(C)C2C(O1)C(O)C1(C)C3CCC4C(C)(C)C(O)CCC45CC35CCC21C (stereo not drawn) [drawing 1207] | > 6.00 | 5.00 to 6.00 | 5.00 to 6.00 | 5.00 to 6.00 | 
6 | CC1CC(C(=O)O)OC2C1C1(C)CCC34CC35CCC(O)C(C)(C)C5CCC4C1(C)C2O (stereo not drawn) [drawing 1208] |  |  |  |  | % Inh. (range) (Aβ-38; Aβ-38, 20 μM): F^a (20 μM) F^b (20 μM) F^c (20 μM) (% inhibition of <25%); % Inh. (range) (Aβ-40; Aβ-40, 20 μM): F^a (20 μM) F^b (20 μM) F^c (20 μM) (% inhibition of <25%); % Inh. (range) (Aβ-42; Aβ-42, 20 μM): F^a (20 μM) F^b (20 μM) F^c (20 μM) (% inhibition of <25%)
7 | CCC(=O)OC(C1CC(C)C2C(O1)C(O)C1(C)C3CCC4C(C)(C)C(OC5CN(C6COC6)CCO5)CCC45CC35CCC21C)C(C)(C)O (stereo not drawn) [drawing 1209] |  | > 6.00 | > 6.00 | 5.00 to 6.00 | pIC50 (Aβ-38; read-out: IC50 range): > 6.00; pIC50 (Aβ-40; read-out: IC50 range): 5.00 to 6.00
8 | CC(=O)OCC1CC(C)C2C(O1)C(O)C1(C)C3CCC4C(C)(C)C(OC(=O)c5cccnc5)CCC45CC35CCC21C (stereo not drawn) [drawing 1210] | 5.00 to 6.00 | 5.00 to 6.00 | 5.00 to 6.00 | 5.00 to 6.00 | pIC50 (Aβ-40; read-out: IC50 range): < 5.00
9 | CC(=O)N(Cc1cc(F)cc(F)c1)CC1CC(C)C2C(O1)C(O)C1(C)C3CCC4C(C)(C)C(O)CCC45CC35CCC21C (stereo not drawn) [drawing 1211] |  | 5.00 to 6.00 | 5.00 to 6.00 | < 5.00 | 
10 | CC(=O)N(Cc1ccccn1)CC1CC(C)C2C(O1)C(O)C1(C)C3CCC4C(C)(C)C(O)CCC45CC35CCC21C (stereo not drawn) [drawing 1212] |  | < 5.00 | < 5.00 | < 5.00 | 
11 | CC(=O)N(CC1CC(C)C2C(O1)C(O)C1(C)C3CCC4C(C)(C)C(O)CCC45CC35CCC21C)C(C)C (stereo not drawn) [drawing 1213] |  | 5.00 to 6.00 |  |  | % Inh. (range) (Aβ-40; Aβ-40, 100 μM): E^b (100 μM) E^c (100 μM) (% inhibition of 25-75%); % Inh. (range) (Aβ-42; Aβ-42, 100 μM): E^b (100 μM) E^c (100 μM) (% inhibition of 25-75%)
12 | CC1CC(C(OC(=O)C2CC2)C(C)(C)O)OC2C1C1(C)CCC34CC35CCC(O)C(C)(C)C5CCC4C1(C)C2O (stereo not drawn) [drawing 1214] |  | 5.00 to 6.00 | > 6.00 | 5.00 to 6.00 | 

From patent publication US20110251379A1, “COMPOUNDS USEFUL FOR TREATING NEURODEGENERATIVE DISORDERS” (Satori Pharmaceuticals, Inc., priority 2010, published 2011)
